Test results taken from patent US20250281462A1, “THERAPEUTICALLY EFFECTIVE ORAL ADMINISTRATION OF A 2 ARYLBENZIMIDAZOLE” (Tranquis Therapeutics, Inc., priority 2021, published 2025).

Assay: Plasma and brain concentrations after single oral dose in rats
Format: in vivo
Settings: both sexes, Sprague-Dawley, rat, rats plasma, suspension; for AUC(0-t): plasma, po
Procedure: Both male (n=3) and female (n=3) Sprague-Dawley rats were administered a single dose of TQS-168 by oral gavage at 50, 150, or 500 mg/kg of TQS-168. TQS-168 was prepared as a suspension with 0.5% methylcellulose in PBS.
Plasma samples were collected at 30, 60, 120, 240, and 1440 minutes after administration. Brain samples were collected in some animals at 60, 240, and 1440 minutes after the single oral dose of TQS-168 at 500 mg/kg. Samples were processed for LC-MS analysis of TQS-168 concentrations.
Cmax and AUC0-t values from the plasma tissues were calculated using PKSolver (Compute Methods Programs Biomed. 2010 September; 99(3):306-14. doi: 10.1016j.cmpb.2010.01.007. Epub 2010 Feb. 21) with the underlying data plotted FIG. 12a.

## CC(C)(C)c1ccc(-c2nc3ccccc3[nH]2)cc1 [TQS-168, 2-(4-tert-butylphenyl)-1H-benzimidazole]
50 mg/kg, 50 mg/kg single oral dose
  AUC(0-t): 833 ng·h/mL
150 mg/kg, 150 mg/kg single oral dose
  AUC(0-t): 1830 ng·h/mL
500 mg/kg, 500 mg/kg single oral dose
  AUC(0-t): 3330 ng·h/mL
50 mg/kg single oral dose
  Cmax: 60 ng/mL
150 mg/kg single oral dose
  Cmax: 120 ng/mL
500 mg/kg single oral dose
  Cmax: 170 ng/mL
